Results: ChEMBL document CHEMBL3045817, “Magnetic resonance assays of haloperidol in human serum albumin” (Med Chem Res, 2011)
Values belong to the compound of their own block, whether it stands above or below them.

How the values were obtained:
[1] = target: Albumin (Homo sapiens, UniProt P02768); experiment: Binding affinity to Homo sapiens (human) serum albumin at 1.5 to 800 ug/ml by NMR analysis; assay type: ADME; details: isolated protein
[2] = Drug uptake in depression pateint brain at 20 mg/day after 3 days by NMR analysis; assay type: ADME; details: human, read-out: Drug uptake
[3] = system: Brain; experiment: Drug uptake in healthy Homo sapiens (human) brain by NMR analysis; assay type: ADME, tissue-based
[4] = Bioavailability in Homo sapiens (human) at 2.5 mg, intramuscular after 15 min; assay type: ADME, organism-based; details: in vivo, im
[5] = Bioavailability in Homo sapiens (human) at 2.5 mg, intranasal after 15 min; assay type: ADME, organism-based; details: in vivo, inhaled or intranasal
[6] = Plasma protein binding in Homo sapiens (human); assay type: ADME, cell-free; details: read-out: PPB (converted)

Sequence of Albumin (P02768 whole entry): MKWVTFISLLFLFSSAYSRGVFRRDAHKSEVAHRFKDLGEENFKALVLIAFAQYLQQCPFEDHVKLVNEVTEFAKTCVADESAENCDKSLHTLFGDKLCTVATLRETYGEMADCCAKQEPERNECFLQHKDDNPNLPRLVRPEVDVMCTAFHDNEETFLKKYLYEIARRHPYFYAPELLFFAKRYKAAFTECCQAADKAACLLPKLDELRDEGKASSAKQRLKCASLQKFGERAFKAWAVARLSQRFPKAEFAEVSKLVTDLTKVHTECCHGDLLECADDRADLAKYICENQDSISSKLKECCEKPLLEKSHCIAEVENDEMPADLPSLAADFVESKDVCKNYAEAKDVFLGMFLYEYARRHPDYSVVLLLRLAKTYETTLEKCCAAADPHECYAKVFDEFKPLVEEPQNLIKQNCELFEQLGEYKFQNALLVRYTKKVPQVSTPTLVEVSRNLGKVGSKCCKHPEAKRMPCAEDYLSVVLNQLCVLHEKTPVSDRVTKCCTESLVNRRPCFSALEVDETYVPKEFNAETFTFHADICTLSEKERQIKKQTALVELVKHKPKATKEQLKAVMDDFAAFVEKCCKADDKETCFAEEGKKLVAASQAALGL

- Activity [1]: Active
Structure (SMILES): O=C(CCCN1CCC(O)(c2ccc(Cl)cc2)CC1)c1ccc([19F])cc1 [[19F]-HALOPERIDOL]

- bioavailability [4]: 48.6%
- bioavailability [5]: 63.8%
- fraction unbound [6]: 0.1
Structure (SMILES): O=C(CCCN1CCC(O)(c2ccc(Cl)cc2)CC1)c1ccc(F)cc1 [HALOPERIDOL]

Continued, compound first:

Structure (SMILES): Fc1ccc([C@@H]2CCNC[C@H]2COc2ccc3c(c2)OCO3)cc1 [PAROXETINE]
- concentration at 72 h [2]: 6000 ng/mL

Structure (SMILES): CN1CCN(CCCN2c3ccccc3Sc3ccc(C(F)(F)F)cc32)CC1 [TRIFLUOPERAZINE]
- Drug uptake [3]: 4 µg/mL

Structure (SMILES): OCCN1CCN(CCCN2c3ccccc3Sc3ccc(C(F)(F)F)cc32)CC1 [FLUPHENAZINE]
- Drug uptake [3]: 4 µg/mL
